The values that follow are results of earlier work, collected in patent US20190060340A1, “NOVEL AMINOGLYCOSIDES AND USES THEREOF IN THE TREATMENT OF GENETIC DISORDERS” (Technion Research & Development Foundation Limited, priority 2007, published 2019).

For orientation: LD50 means the dose at which mortality reaches 50%.

The conditions of data set [1]: available toxicity data on aminoglycosides; unit inferred; cited from earlier work.
A further data set deals with stop mutations. Conditions: literature; cited from earlier work.

With `NC[C@@H]1O[C@@H](O[C@H]2[C@H](O)[C@@H](O[C@H]3O[C@H](CO)[C@@H](O)[C@H](N)[C@H]3O)[C@H](N)C[C@@H]2N)[C@@H](O)[C@H](O)[C@H]1O` [kanamycin A], the LD50 in data set [1] was 280 mg/kg. In addition, the “stop mutations suppression / read-through activity” value in the data set with stop mutations was “does not show any read-through activity”.
Turning to `NC[C@H]1O[C@H](O[C@H]2[C@H](O)[C@@H](O[C@H]3O[C@H](CO)[C@@H](O)[C@H](N)[C@H]3O)[C@H](N)C[C@@H]2N)[C@H](N)C[C@@H]1O` [tobramycin], the LD50 in data set [1] was 79 mg/kg. Besides, the “stop mutations suppression / read-through activity” value in the data set on stop mutations is recorded as “do not have stop mutations suppression activity”.
